Tests used:
[1] = tested on: CD34-positive human haematopoietic cells; assay: FACS analysis of healthy CD34-positive haematopoietic cells after LSD1i and MEKi sequential treatment; assay type: cell-based
Source text: We next tested whether the LSD1i->MEKi sequential treatment may be affecting healthy human haematopoietic (CD34-positive) cells. We observed an increase in the expression of differentiation markers, such as CD11b and CD14, but no effect on the proportion of CD34-positive cells as a result of treatment with LSD1i (FIG. 11, A to C).
Umbilical cord bloods were purchased from Anthony Nolan. Mononuclear cells (MNCs) were isolated by Ficoll prior red blood cells (RBC) lysis buffer (BioLegend, catalog #420301). Cells were then stained with CD34 immunomagnetic positive selection kit (EasySep™ Human CD34 Positive Selection Kit II, StemCell technologies, catalog #17856, according to manufacturer instructions). Purity of CD34^+ cells isolated from MNCs was assessed by flow cytometry prior to long term storage in liquid nitrogen. For AML samples, patients gave informed consent for the storage and use of their blood cells for research purposes. Experiments were performed in accordance with the Local Research Ethics Committee, as previously described. Mononuclear cells from peripheral blood or bone marrow biopsies were isolated in the BCI tissue bank facility and stored in liquid nitrogen.
For the establishment of the feeder layer, MS-5 cells were plated onto 6-well plates (for the co-culture with CD34+ cord blood cells) or 96-well plates (for the co-culture with primary AML cells) at a density of 5-10,000 cells/cm^2 (48,000 cells for each well of a 6-well plate, or 3,200 cells for each well of a 96-well plate) with IMDM medium. Cells were then incubated at 37° C. for 48 hours, or until a confluency of approximately 70% was reached, after which they were irradiated with an X-ray source at 680 cGy. Following irradiation, the growth medium was removed and replaced with complete H5100 medium, and cell were incubated at 37° C. for a further 24 hours.
Following recovery, cord blood-derived CD34+ cells or primary AML cells were added to the plates containing the established MS-5 feeder layers. CD34+ cells were added at a density of 20,000 cells/well of a 6-well plate, whilst primary AML cells were added at 8,300 cells/well of a 96-well plate. Cells were then left to incubate at 37° C. and to recover for 4 days, after which treatments were started. […] Following treatment, CD34+ cells were harvested by collecting culture medium in FACS tubes. Adherent cells were detached by briefly incubating with trypsin-EDTA, then also added to the respective FACS tubes. Cells were centrifuged at 300×g for 8 minutes, the supernatant was removed and cells were resuspended in 1 mL PBS+2% FBS, then processed for FACS analysis as described below. For primary AML, cells were resuspended and transferred to separate 96-well plates, after which they were processed for Guava ViaCount analysis, as described below. […]

P31/Fuj cells [2] = assay: Subcellular (cytosolic and nuclear/organelle) proteomics of LSD1i-treated P31/Fuj cells; assay type: cell-based
Protocol: Isolation of nuclear/organelle and cytosolic fractions for proteomic analysis was carried out as described below.
The isolation of cytosolic and nuclear/organelle proteins was performed as follows. Cells (10×10^6 cells per replicate) were resuspended in 1 mL hypotonic lysis buffer (containing 10 mM Tris-HCl pH 8.0, 1 mM KCl, 1.5 mM MgCl2, 1 mM DTT, 1 mM Na3VO4 and 1 mM NaF) and incubated at 4° C. for 30 minutes on a rotator. Nuclei/organelles were then pelleted (10,000×g, 10 min, 4° C.), after which the supernatant (cytosolic fraction) was transferred to fresh tubes. The nuclear/organelle fraction was further processed for proteomic analysis by adding 8M urea buffer as indicated above.
Proteins in the supernatant were isolated by methanol/chloroform precipitation as follows. Methanol was added to the protein solution (at 4×initial volume), followed by chloroform (1×initial volume) and ddH2O (3×initial volume), vortexing after each addition. Samples were centrifuged for 2 min, 12,000×g, 4° C., and the top aqueous layer was removed. Additional methanol was added (4×initial volume) and samples vortexed. Samples were centrifuged for 3 min, 12,000×g, 4° C., and the supernatant removed. Protein pellets were dried briefly at RT, then resuspended in 8M urea buffer. Homogenisation, cysteine alkylation and tryptic digestion of the nuclear and cytosolic fractions were carried out as described above. Desalting was performed through C18 spin columns (Glygen Corporation, Cat. TT2C18) following the manufacturer's indications. Briefly, columns were equilibrated twice with 200 μL 70% ACN, and washed twice with 200 μL 1% ACN. Peptide samples were loaded onto the columns, then washed twice with 200 μL 1% ACN, with spinning. […] Columns were spun for 2 min at 1,500×g, 4° C. each time they were loaded.

[3] = results of clinical trials; unselected AML patient populations; cited from earlier work
P31/Fuj cells [4] = assay: Phosphoproteomics (LC-MS/MS) and kinase network analysis of treated P31/Fuj cells
Protocol: To study ATRA effect over the phosphoproteome, P31/Fuj cells (10×10^6 cells at 0.5×10^6 cell/mL) were seeded in T75 flask and treated with either Et-OH, 1 μM ATRA or 10 μM ATRA for 5 days. […] For both experiments, cells were collected by centrifugation (1500 rpm for 5 min at 5° C.), then cell pellets were washed twice with ice cold PBS supplemented with phosphatase inhibitors (1 mM Na3VO4, 1 mM NaF) and stored at −80° C. Pellets were processed for phosphoproteomics analysis as indicated below.
In brief, cell pellets were lysed in 300 μL of urea buffer (8 M urea in 20 mM HEPES, pH 8.0, supplemented with 1 mM Na3VO4, 1 mM NaF, 1 mM Na4P2O7 and 1 mM P-glycerophosphate). Lysates were further homogenized by sonication (30 cycles of 30 s on 30 s off; Diagenode Bioruptor® Plus) and insoluble material was removed by centrifugation. Protein was quantified using BCA (Thermo Fisher Scientific). Then, 500 μg of protein were subjected to cysteine alkylation using sequential incubation with 10 mM dithiothreitol (DDT) and 16.6 mM iodoacetamide (IAM) for 1 h and 30 min, respectively, at 25° C. with agitation. Trypsin beads (50% slurry of TLCK-trypsin; Thermo Fisher Scientific; Cat. #20230) were equilibrated with 3 washes with 20 mM HEPES (pH 8.0), the urea concentration in the protein suspensions was reduced to 2 M by the addition of 20 mM HEPES (pH 8.0), 100 μL of equilibrated trypsin beads were added and the samples were incubated overnight at 37° C. Trypsin beads were removed by centrifugation (2000×g at 5° C. for 5 min) and the resulting peptide solutions were desalted through Oasis HLB cartridges (Waters) following the manufacturer's indications. Briefly, cartridges were set in a vacuum manifold device and the pressure was adjusted to 5 mmHg. Then, cartridges were conditioned with 1 mL acetonitrile (ACN) and equilibrated with 2.5 mL of wash solution (0.1% trifluoroacetic acid (TFA), 2% ACN). Peptides were loaded in the cartridges and washed with 1 mL of wash solution. Finally, peptides were eluted with 500 μL of glycolic acid buffer 1 (1 M glycolic acid, 5% TFA, 50% ACN). Enrichment of phosphorylated peptides was performed with TiO2 Beads (GL Sciences). The eluents were normalized to 1 mL with glycolic acid buffer 2 (1 M glycolic acid, 5% TFA, 80% ACN) and incubated with 50 μl of TiO2 buffer (50% slurry in 1% TFA) for 5 min at room temperature. TiO2 beads were packed by centrifugation into empty spin columns (Glygen Corporation; Cat. TT2EMT) previously washed with ACN. TiO2 beads were sequentially washed by centrifugation (1500×g for 3 min) with 100 μL of glycolic acid buffer 2, ammonium acetate solution (100 mM ammonium acetate in 25% ACN) and twice with neutral solution (10% ACN). For phosphopeptide elution, spin tips were transferred to fresh tubes, 50 μL of elution solution (5% NH4OH, 7.5% ACN) were added and tips were centrifuged at 1500×g for 3 min. The elution step was repeated a total of 4 times. Finally, samples were snap frozen, dried in a SpeedVac and phosphopeptide pellets were stored at −80° C.

acute myeloid leukemia = conditions: Smitheman et al. (2019); cited from earlier work
[5] = LSD1i 5 days, healthy CD34-positive cells co-cultured with MS5 (FIG. 11)
[6] = 0.5 μM LSD1i 5 days versus control (FIG. 21A)
[7] = 0.5 μM LSD1i 5 days versus control (FIG. 21B)
[8] = LSD1i, pathway analysis of proteomics data (FIG. 21 C, D)
[9] = LSD1i by itself, 2.5 z-score threshold (FIG. 6C)
[10] = LSD1i relative to control (FIGS. 6 C, D, 18B)
[11] = LSD1i treatment, P31/Fuj (FIG. 19A)

Structure (SMILES): O=C(O)c1ccc(CN2CCC(CN[C@@H]3C[C@H]3c3ccccc3)CC2)cc1 [GSK2879552]
- effect on normal stem/progenitor cell compartment ([1]; LSD1i 5 days then MEKi 3 days): preserved the normal stem/progenitor cell compartment
- apoptosis (Annexin V) in healthy haematopoietic cells ([1]; LSD1i 5 days then MEKi 3 days, mostly restricted to the more mature CD34-negative cells (FIG. 11D, 12)): increased apoptosis
- expression of differentiation markers, such as CD11b and CD14 [1, 5]: increase
- proportion of CD34-positive cells [1, 5]: no effect
- number of proteins decreasing in cytosolic fraction (P31/Fuj cells [2]; [6]): 379
- number of proteins increased in cytosolic fraction (P31/Fuj cells [2]; [6]): 101
- number of proteins decreasing in nuclear/organelle fraction (P31/Fuj cells [2]; [7]): 334
- number of proteins increased in nuclear/organelle fraction (P31/Fuj cells [2]; [7]): 293
- expression of MAPK pathway enzymes including NRAS, KRAS, MEK1 and P90-S6K (RPS6KA1 isoform) (P31/Fuj cells [2]; LSD1i 5 days (FIG. 7B, 22A)): increase
- expression of PI3K p110δ catalytic isoform, AKT2, and RAC1 (P31/Fuj cells [2]; LSD1i 5 days (FIG. 7B, 22A)): decrease
- proteins involved in the PI3K, insulin and c-MYC signaling pathways (P31/Fuj cells [2]; [8]): decrease
- α and β-integrin signaling proteins (P31/Fuj cells [2]; [8]): increase
- clinical tolerability as single agent [3]: has side effects
- phosphorylation sites affected by kinase inhibitors after LSD1i pre-treatment versus vehicle (P31/Fuj cells [4]; 0.5 μM LSD1i 5 days, then 1 μM kinase inhibitor 1 h, P31/Fuj (FIG. 6B)): fewer phosphorylation sites
- c-Myc phosphorylation at S62 (P31/Fuj cells [4]; LSD1i 5 days, P31/Fuj (FIG. 6F)): reduced
- kinase activities (node centrality) (P31/Fuj cells [4]; LSD1i by itself relative to control (FIG. 6D)): decreased more kinase activities than it increased
- number of network axes with decreased enrichment (P31/Fuj cells [4]; [9]): 18
- number of network axes with increased enrichment (P31/Fuj cells [4]; [9]): 6
- effect of PI3K, AKT, MEK and ERK inhibitors in increasing phosphorylation of epigenetic regulators and histones, CDKs, cyclins and DNA repair proteins (P31/Fuj cells [4]; LSD1i pre-treatment (FIG. 6H, 19 D, E)): blunted
- circuitries containing AKT and MTOR (P31/Fuj cells [4]; [10]): decrease
- circuitries with PKCI and MEK1 (MAP2K1) (P31/Fuj cells [4]; [10]): increased
- AHNAK pS5110 phosphorylation (P31/Fuj cells [4]; [11]): increased
- PI3K/AKT pathway markers GSK3B pS13 and RPS6 p236, and MAPK pathway marker MAPK3 (ERK1) pT202 (P31/Fuj cells [4]; [11]): decreased
- kinase inhibitor-induced increase in phosphorylation of LSD1/KDM1A at T95 and S93 (P31/Fuj cells [4]; control cells versus LSD1i pre-treated cells (FIG. 6G, 19A)): not in cells pre-treated with LSD1i
- differentiation and cytotoxic response in combination with all-trans retinoic acid (ATRA) (acute myeloid leukemia): enhances differentiation and promotes cytotoxic response
